The structures appear in SMILES notation.

This note sets out measurements from paper PMC10154516, “Potential profound fluctuation in tacrolimus concentration on consumption of pomegranate rind extract: A Pharmacokinetic Experiment” (Frontiers in Pharmacology, 2023).

One data set addresses T1, CYP3A4 (Homo sapiens, UniProt P08684).
T1 construct: purchased BioVision Inc. K702-200
The data set can be described thus: CYP3A4 inhibitory in vitro assay (fluorometric inhibitor screening kit). The format is biochemical. To be noted: for inhibition at 150 µM: Concentration 150 (unit inferred); for inhibition at 200 µM: Concentration 200 (unit inferred). The protocol: Briefly, incubations were conducted in a reaction volume of 200 μl/well in a 96-well microliter plate. For the calibration curve, resorufin (standard) was plotted by taking different concentrations (0, 4, 8, 12, 16, 20, 30, and 40 µl) of the 1 pmol/μl of the standard available in the kit. One mole of resorufin corresponds to the metabolism of 1 mol of the CYP3A4 substrate. […] The corresponding percentage inhibition due to the test ligand or positive inhibition control was calculated. CYP3A4 activities observed with punicalagin at varying concentrations (50,100, 150, 200, 250, and 300 µM) were noted down ([Hidaka et al., 2005]; [Faria et al., 2007]). The concentration at which 50% of the CYP3A4 activity is inhibited (IC50) was noted down. The logarithm values were plotted onto the graphs. Each compound was tested in triplicates. Inhibition curves were plotted from the log values of the concentration of the samples vs. the percentage inhibition calculated.

A short description of data set [1]: Pharmacokinetics of TAC in Wistar rats with and without oral PRE (LC-MS/MS of plasma). Format: in vivo. The protocol: The assessment of TAC in all the samples was done with the help of the LC-MS/MS method. Samples were prepared following the method stated by [Shokati et al. (2015)]. After the preparation of samples, the supernatant was then used further for investigation. An aliquot of 10 μL was injected into the LC-MS/MS system. The column used for analysis was Eclipse XDB C-18 with 100 mm × […] × 3.5 um) with a flow rate of 1.5 ml/min (LC flow split to MS as 0.45 ml/min). The mobile phase used was a mixture of solvent A (acetonitrile) and solvent B (ammonium acetate in water) including 0.1% formic acid in a ratio of 95:05 v/v with a run time of 2 min isocratic (Supplementary Table S2. The compounds were detected by tandem mass spectrometry using electrospray ionization in the positive mode and using ion transitions m/z 821.5 -> 768.0 for TAC (standard) and m/z 721.1 -> 296.1 for ritonavir (internal standard).
Extraction of the drug from the plasma was carried out by the precipitation method. An aliquot of drug-free plasma spiked with 50 μl of ZnSO4 solution and 300 μl of methanol/acetonitrile (50:50, v/v) including IS was added. The mixture was vortex mixed for 30 s and centrifuged at 14,000 g (2000 rpm) at […] for 5 min. The supernatant solution was separated and filtered through a 0.45-µ membrane filter and stored at −20°C until use for analysis. The aforementioned extraction procedure was followed for all plasma samples, calibration curve samples, and QC samples. The optimization of the extraction procedure was required to reduce variation in the area of IS and improve injection to injection reproducibility. The schematic flow chart for the extraction procedure is depicted in Figure 1.
TAC (3 mg/kg) was administered orally to experimental rats (N = 6), and in another group, PRE at a dosage of 200 mg/kg was orally co-administered with TAC dosage of 3 mg/kg in a similar manner to six rats. Both groups were given a volume of 10 ml/kg which was a single dose to all animals. Blood samples were drawn at regular intervals, and the blood plasma concentration of TAC was assessed with the help of the validated LC-MS/MS technique ([Sattler et al., 1992]; [Alanbaki et al., 2019]).
Pretreatment of PRE (200 mg/kg) for a period of six consecutive days was done in group 2, and afterward, on the 7th day, in group 2, PRE (200 mg/kg) was co-administered with TAC (3 mg/kg) to experimental animals (N = 6). In group 1, a single dose of TAC (3 mg/kg) was administered to the animals at a volume of 10 ml/kg body weight.
To study the dose–effect relationship, the Wistar rats were equally distributed into five groups (N = 6 rats/group). PRE at a dose of 100, 200, 400, and 800 mg/kg was given by oral route to the rats, co-administrated with TAC (3 mg/kg). The drug TAC at a dose of 3 mg/kg was given similarly to all the rats in another group, with a volume of 10 ml/kg body weight. Blood was collected from the retro-orbital plexus, and the plasma samples were separated.
The experimental animals were fasted for 12 h before the collection of blood. A total of 300 μL of blood were collected in Eppendorf tubes containing heparinized solution at different time intervals (0, 0.5, 1.0, 2.0, 4.0, 8.0, 12, and 24 h). Plasma was separated and approximately 100 μl of samples was pipetted in the tubes (Figure 2). A total of 300 μl of methanol/acetonitrile (50:50, v/v) and 50 μl of ZnSO4 solution were added, and the solution was vortexed for 30 s and centrifuged at 14,000 g (2000 rpm) for 10 min (Figure 2). All the samples were stored at −20°C until further analysis ([Anlamlert and Sermsappasuk, 2020]).
Pharmacokinetic parameters such as time to reach the maximum concentration (Tmax) and Cmax of TAC were read from the […] (observed blood concentration vs. time profile). AUC0-12 was calculated with the help of a linear trapezoidal rule (Drug and Statistics (DAS) software version 2.1.1). […]

[2] abbreviates: human, probe kit CYP3A4 substrate metabolised to resorufin (not named), read-out: % Relative Inhibition.

T1 sequence (P08684 whole entry): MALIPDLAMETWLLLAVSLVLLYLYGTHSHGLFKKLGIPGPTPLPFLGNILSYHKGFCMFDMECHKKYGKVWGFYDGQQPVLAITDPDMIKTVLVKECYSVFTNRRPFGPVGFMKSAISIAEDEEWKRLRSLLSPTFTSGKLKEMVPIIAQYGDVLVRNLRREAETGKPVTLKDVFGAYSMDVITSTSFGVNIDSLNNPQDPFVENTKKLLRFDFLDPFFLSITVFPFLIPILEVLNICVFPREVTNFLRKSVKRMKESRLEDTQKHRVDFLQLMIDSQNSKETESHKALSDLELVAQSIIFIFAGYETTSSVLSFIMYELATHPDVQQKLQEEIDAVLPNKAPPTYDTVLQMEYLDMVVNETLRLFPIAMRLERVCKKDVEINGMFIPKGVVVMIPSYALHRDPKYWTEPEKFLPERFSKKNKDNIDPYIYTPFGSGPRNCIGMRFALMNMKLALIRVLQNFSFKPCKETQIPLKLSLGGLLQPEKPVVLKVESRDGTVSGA

On to `O=C1O[C@H]2[C@@H]3OC(=O)c4cc(O)c(O)c(O)c4-c4c(O)c(O)c5oc(=O)c6c(c(O)c(O)c7oc(=O)c4c5c76)-c4c(cc(O)c(O)c4O)C(=O)OC[C@H]3OC(O)[C@@H]2OC(=O)c2cc(O)c(O)c(O)c2-c2c1cc(O)c(O)c2O` (mixture of isomers) [Punicalagin], for which, at CYP3A4 (human, probe kit CYP3A4 substrate metabolised to resorufin (not named), Concentration 50 (unit inferred), read-out: % Relative Inhibition), the inhibition at 50 µM came to 89.1%. Further, at CYP3A4 (human, probe kit CYP3A4 substrate metabolised to resorufin (not named), Concentration 100 (unit inferred), read-out: % Relative Inhibition), the inhibition at 100 µM amounted to 76.2%. Moreover, at CYP3A4 (setting [2]), the inhibition at 150 µM was 64.5% and the inhibition at 200 µM came out at 52.5%. Further, the inhibition at 250 µM on CYP3A4 (human, probe kit CYP3A4 substrate metabolised to resorufin (not named), Concentration 250 (unit inferred), read-out: % Relative Inhibition) was 35.2%. The inhibition at 300 µM on CYP3A4 (human, probe kit CYP3A4 substrate metabolised to resorufin (not named), Concentration 300 (unit inferred), read-out: % Relative Inhibition) worked out at 11.4%. Besides, the CYP3A4 inhibitory activity entry at CYP3A4 (varied concentrations) is “exhibits CYP3A4 inhibitory activity”.
On to `CC(=O)N1CCN(c2ccc(OCC3COC(Cn4ccnc4)(c4ccc(Cl)cc4Cl)O3)cc2)CC1` (centres unmarked) [Ketoconazole], for which, on CYP3A4 (setting [2]), the inhibition at 150 µM is 72.5% and the inhibition at 200 µM was found to be 55%.
In the case of `C=CC[C@@H]1/C=C(\C)C[C@H](C)C[C@H](OC)[C@H]2O[C@@](O)(C(=O)C(=O)N3CCCC[C@H]3C(=O)O[C@H](/C(C)=C/[C@@H]3CC[C@@H](O)[C@H](OC)C3)[C@H](C)[C@@H](O)CC1=O)[C@H](C)C[C@@H]2OC` [TAC, Tacrolimus], the “Mean plasma concentration of TAC” value in data set [1] (TAC 3 mg/kg co-administered with PRE 800 mg/kg, multiple-dose study) is on record as “does not increase”. Besides, the “AUC0-12 of TAC” value in data set [1] (TAC 3 mg/kg co-administered with PRE 100, 200, 400, 800 mg/kg) is given as “increased with an increase in PRE doses”. Also, in data set [1] (TAC 3 mg/kg co-administered with PRE 100 to 400 mg/kg, multiple-dose study), the “Average plasma concentration of TAC” value is reported as “increases with an increase in PRE dose”. Moreover, the “t1/2 of TAC” value in data set [1] (TAC 3 mg/kg co-administered with PRE varied doses) is “prolonged”. The “AUC0-inf of TAC” value in data set [1] (TAC 3 mg/kg p.o. alone) is on record as 61.91 ± 17.37 ngh/ml. The compound further showed a Cmax in data set [1] (Wistar, po, TAC 3 mg/kg p.o. alone, rat plasma) of 9.03 ± 1.21 ng/mL. For the same compound, the Tmax in data set [1] (Wistar, rat, plasma, po, TAC 3 mg/kg p.o. alone) turned out to be 54.6 ± 10.8 min. In addition, in data set [1] (Wistar, rat, plasma, po, TAC 3 mg/kg p.o. alone, read-out: t1/2 of TAC (converted)), the half-life is 7.2 ± 2.4 min.

The term inhibition denotes how much of the control response was suppressed. A word on the Cmax: it is the highest concentration seen after dosing. Usually Tmax stands for the time from dosing to the highest level.
